Measurements published in patent US7097992B2, “Uses of human UDP-glucuronosyltransferase 2B7 to detect and treat cancer” (priority 2001, dated 2006).

Tests used:
[1] = biological target: T1, recombinant UDP-glucuronosyltransferase 2B7 (Homo sapiens, UniProt P16662); test: In vitro glucuronidation of lysophosphatidic acids by recombinant UGT2B7 expressed in HK293 cells; assay type: in vitro ADME; settings: for Glucuronidation by UGT2B7 (in words): recombinant UGT2B7, FIG. 9A
T1 construct: made in house
T1 sequence (P16662 24-529): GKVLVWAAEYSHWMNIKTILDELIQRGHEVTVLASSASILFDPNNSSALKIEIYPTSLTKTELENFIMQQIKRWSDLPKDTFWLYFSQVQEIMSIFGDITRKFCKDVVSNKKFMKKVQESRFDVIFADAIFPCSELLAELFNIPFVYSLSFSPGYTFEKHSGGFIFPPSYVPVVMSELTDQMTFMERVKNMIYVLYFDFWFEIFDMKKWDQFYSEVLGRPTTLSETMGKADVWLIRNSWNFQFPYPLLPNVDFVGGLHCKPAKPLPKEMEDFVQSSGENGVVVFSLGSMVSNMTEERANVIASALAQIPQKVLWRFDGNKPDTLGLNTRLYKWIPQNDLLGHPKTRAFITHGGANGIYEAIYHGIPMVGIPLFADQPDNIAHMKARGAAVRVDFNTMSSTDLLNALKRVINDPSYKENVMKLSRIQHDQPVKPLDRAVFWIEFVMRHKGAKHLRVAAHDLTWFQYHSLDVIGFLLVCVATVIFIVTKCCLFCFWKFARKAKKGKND
Excerpt: (§1) Reactions with substrates were run in duplicates.
(§2) Lysophosphatidic acid (LPA) stimulates lysophosphatidic acid receptors which in turn activate PKC and Ras-MAPK signalling pathways. Lysophosphatidic acid is a lipid second messenger involved in progression of malignant ovarian cancer. Cellular effects of lysophosphatidic acid accumulation include stimulation of cell proliferation, inhibition of apoptosis and increased invasiveness of cancer cells. It was hypothesized that anti-proliferative activity of UDP-glucuronosyltransferase 2B7 in the ovarian cancer cell model described above may be associated with inactivation of lysophosphatidic acid through glucuronidation. Thus, in vitro glucuronidation experiments on three different lysophosphatidic acid compounds (FIG. 10) was conducted using human liver microsomes and a recombinant UDP-glucuronosyltransferase 2B7 expressed in HK293 cells.

human liver microsomes = test: In vitro glucuronidation of lysophosphatidic acids by human liver microsomes; assay type: in vitro ADME; settings: for Glucuronidation by human liver microsomes (in words): FIG. 9A
Excerpt: as §1, §2

| Structure (SMILES) | Glucuronidation by UGT2B7 (in words) [1] | Glucuronidation by human liver microsomes (in words) (human liver microsomes) | Specific activity of glucuronidation ([1]; recombinant UGT2B7 expressed in HK293 cells) [pmol/min/mg] | Specific activity of glucuronidation (human liver microsomes) [pmol/min/mg] |
| --- | --- | --- | --- | --- |
| CCCCCCCCCCCCCCCC(=O)OC[C@@H](O)COP(=O)(O)O [palmitoyl-lysophosphatidic acid] | not | same activity profile |  |  |
| CCCCCCCC/C=C\CCCCCCCC(=O)OCC(O)COP(=O)(O)O (centres unmarked) [oleoyl-lysophosphatidic acid] | actively glucuronidated | same activity profile | 250 | 560 |
| CCCCCCCCCCCCCCCCCC(=O)OC[C@@H](O)COP(=O)(O)O [stearoyl-lysophosphatidic acid] | not | same activity profile |  |  |
